This is an account of results in patent US9085602B1, “Facial amphiphiles and methods of use” (The Scripps Research Institute, priority 2008, dated 2015).

In data set [1] the target is T1, MsbA from S. typhimurium (ST-MsbA) (Salmonella typhimurium, UniProt P63359).
T1 construct: made in house
Briefly: Linked enzyme ATPase assay of detergent-solubilized MsbA (activity and stability). It counts as biochemical. As for the experimental part: The purified protein in the candidate detergent was assayed for activity by a standard linked enzyme ATPase assay to probe the protein stability.
MsbA was prepared from S. typhimurium as described previously (Reyes, C. L.; Chang, G. Acta Crystallograph Sect. F Struct. Biol. Cryst. Commun. 2005, 61, 655-8). […] The supernatant after centrifugation at 200,000 g for 45 min was subjected to Ni-affinity column for purification. The protein extraction and purity was evaluated by SDS-PAGE. MsbA was further purified by anion-exchange chromatography and desalting column for the stability evaluation which was followed by ATPase activity measurement.
ATPase activity was measured using an ATP-regenerating system described by Vogel and Steinhart (Biochemistry 1976, 15, 208-16), and modified by Urbatsch et al. (J. Biol. Chem. 1995, 270, 19383-90). Briefly, 1-2 μg of detergent solubilized MsbA was added to 100 μL of Linked Enzyme (LE) buffer at 37° C. containing 10 mM ATP, 12 mM MgCl2, 6 mM phosphoenolpyruvate (PEP), 1 mM NADH, 10 units of lactate dehydrogenase (LDH), 10 units of pyruvate kinase (PK), and 50 mM Tris-HCl (pH 7.5). ATP hydrolysis was measured as the decrease in absorbance of NADH at 340 nm using a DXT880 multiplate spectrofluorimeter (Beckman-Coulter). ATPase activity was calculated using the following equation: […], where ΔOD is the change in optical density and […].

The target in data set [2] is T2, MsbA (Salmonella typhimurium, UniProt P63359). The data set can be described thus: Detergent binding measurement using glycosidic colorimetric assay. Set-up: made in house; species or system S. typhimurium. The settings on record: MsbA fractions from chromatography.
T2 sequence (P63359 whole entry): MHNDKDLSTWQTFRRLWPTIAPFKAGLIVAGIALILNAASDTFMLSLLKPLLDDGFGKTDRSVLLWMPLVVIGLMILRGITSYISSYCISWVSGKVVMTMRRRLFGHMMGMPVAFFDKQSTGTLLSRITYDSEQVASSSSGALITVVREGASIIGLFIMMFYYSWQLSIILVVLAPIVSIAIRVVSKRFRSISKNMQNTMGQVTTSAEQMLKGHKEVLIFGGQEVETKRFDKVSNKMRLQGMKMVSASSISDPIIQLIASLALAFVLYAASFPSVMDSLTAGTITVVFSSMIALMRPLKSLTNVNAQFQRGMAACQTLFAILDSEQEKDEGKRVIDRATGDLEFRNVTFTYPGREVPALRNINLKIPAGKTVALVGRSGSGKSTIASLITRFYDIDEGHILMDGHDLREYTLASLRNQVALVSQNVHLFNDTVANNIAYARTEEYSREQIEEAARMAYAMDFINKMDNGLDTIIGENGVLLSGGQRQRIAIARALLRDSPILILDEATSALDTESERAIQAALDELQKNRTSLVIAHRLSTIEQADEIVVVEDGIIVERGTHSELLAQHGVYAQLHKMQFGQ
Data set [3] in a line: Critical micelle concentration (CMC) by ANS fluorescence dye binding. It counts as physicochemical. The settings on record: in water at 25° C. As for the experimental part:
See De Vendittis et al., Anal. Biochem. 1981, 115, 278-86. The molecule ANS has a weak fluorescence in detergent concentrations below CMC, but becomes highly fluorescent when incorporated into the hydrophobic micellar environment. […] The emission fluorescence intensities at 465 nm were recorded (λex=405 nm) on a DXT880 multiplate spectrofluorimeter (Beckman Coulter). The CMC is defined as the breakpoint in the fluorescence (FIG. 4).
See also De Vendittis et al., Anal. Biochem. 1981, 115, 278-86.

Data set [4] is described as follows: Hydrodynamic radius of detergent micelles (DynaPro/Titan instrument). It is filed as physicochemical. The settings on record: measured at a concentration of 0.03% in water.
Data set [5] addresses T2, MsbA. Briefly: Small-angle x-ray scattering of MsbA in detergent. The settings on record: separation of PDC signal from empty micelles. The source says:
The facial amphiphiles self-assemble to smaller micelles and form smaller protein-detergent complexes (PDCs) than the conventional detergents. Because of these unique properties, facial amphiphiles can be used for SAX (small-angle x-ray scattering) studies of integral membrane proteins. A major challenge for applying SAXS to membrane protein structural analysis is the need to separate the scattering signal of the PDC from that of the empty micelles. With conventional head-to-tail detergents, it is difficult to achieve this goal because of the presence of the large detergent micelles and the characteristic second peak in the scattering intensity. Remarkably, the facial amphiphiles described herein allow one to separate the scattering signal of the PDC from that of the empty micelles.

The target in the next data set is T3, bacteriorhodopsin (BR) (Halobacterium salinarum, UniProt P02945).
T3 construct: BR was isolated from purple membrane of Halobacterium halobium (strain S9); endogenous in cells; host or cells: Halobacterium halobium strain S9, purple membrane
T3 sequence (P02945 14-262): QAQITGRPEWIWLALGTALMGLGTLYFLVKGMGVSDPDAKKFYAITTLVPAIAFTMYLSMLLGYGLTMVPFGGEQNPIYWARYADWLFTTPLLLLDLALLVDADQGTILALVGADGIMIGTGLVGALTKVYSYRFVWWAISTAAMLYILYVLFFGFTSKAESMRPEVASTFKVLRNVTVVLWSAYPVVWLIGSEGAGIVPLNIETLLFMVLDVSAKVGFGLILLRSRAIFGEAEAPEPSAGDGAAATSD
Briefly: Stabilization of bacteriorhodopsin followed by UV-Vis absorption. Details: species or system Halobacterium halobium. To be noted: for stability of BR stored in the detergent: pH 5.6, RT, A1 for more than 5 months. An excerpt: BR has a characteristic adsorption at visible wavelength (λmax: ˜550 nm in detergents) due to the bound retinal ligand in the interior of the transmembrane region, serving as an excellent system for the testing of designed amphiphiles.
BR was isolated from purple membrane of Halobacterium halobium (strain S9) and purified in 1.2% β-octyl-glycoside (OG) as reported in literature (Landau, E. M.; Rosenbusch, J. P. Proc. Natl. Acad. Sci. USA 1996, 93, 14532-5). […] After several dilution-concentration cycles, the final OG concentration was <1% of its CMC (0.53%). […] The UV-Vis absorption spectra of BR samples were recorded on a DXT880 multiplate spectrofluorimeter (Beckman Coulter).

For another data set, the target named is T4, cytochrome c oxidase ba3 (Thermus thermophilus, UniProt P82543+Q5SJ79+Q5SJ80).
T4 sequence (Q5SJ79 1-562): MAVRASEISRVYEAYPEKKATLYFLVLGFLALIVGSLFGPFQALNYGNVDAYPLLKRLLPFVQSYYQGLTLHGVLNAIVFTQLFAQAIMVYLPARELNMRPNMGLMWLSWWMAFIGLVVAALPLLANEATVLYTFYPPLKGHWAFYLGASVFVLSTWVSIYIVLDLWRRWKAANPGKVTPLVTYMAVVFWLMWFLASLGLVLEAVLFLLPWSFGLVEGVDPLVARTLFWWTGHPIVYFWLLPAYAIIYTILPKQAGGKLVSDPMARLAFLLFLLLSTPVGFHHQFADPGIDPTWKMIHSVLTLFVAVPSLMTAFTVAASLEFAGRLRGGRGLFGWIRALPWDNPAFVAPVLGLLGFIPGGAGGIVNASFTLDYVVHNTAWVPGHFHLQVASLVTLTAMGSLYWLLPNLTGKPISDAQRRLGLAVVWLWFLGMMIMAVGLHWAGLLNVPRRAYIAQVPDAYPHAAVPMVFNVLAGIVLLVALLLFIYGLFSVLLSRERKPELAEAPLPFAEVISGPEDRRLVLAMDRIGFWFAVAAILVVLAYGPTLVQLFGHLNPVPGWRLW
T4 sequence (Q5SJ80 1-168): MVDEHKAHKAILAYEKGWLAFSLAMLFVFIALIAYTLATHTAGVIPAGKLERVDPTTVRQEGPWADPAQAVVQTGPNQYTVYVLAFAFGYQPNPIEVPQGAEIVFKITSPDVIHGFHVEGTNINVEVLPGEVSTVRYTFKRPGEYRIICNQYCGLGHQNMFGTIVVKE
T4 sequence (P82543 1-34): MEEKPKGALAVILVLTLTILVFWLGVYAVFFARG
Briefly: Crystallization of cytochrome c oxidase ba3 by detergent exchange from β-DDM. To be noted: pure detergent. As for the experimental part:
The facial amphiphiles were evaluated in the crystallization of cytochrome c oxidase ba3 by detergent exchange from β-DDM. Several new crystal forms were obtained depending on which detergent was used, albeit in less than optimal diffraction quality (>6 Å). […] Crystals of human connexin 26 have also been obtained using the purely facial amphiphiles described herein.

The conditions of data set [6]: known detergents, comparison values; cited from earlier work.

Values joined by “and” are separate entries in the source; they are usually repeats but may differ in a detail not shown here. Identical values can stand only once. Like-named read-outs stand apart in the source and are kept apart here.

T1 sequence (P63359 whole entry): as the sequence (P63359 whole entry) above

Consider `CCCCCCCCCCCO[C@@H]1O[C@H](CO)[C@@H](O[C@H]2O[C@H](CO)[C@@H](O)[C@H](O)[C@H]2O)[C@H](O)[C@H]1O` [β-UDM, Undecyl-β-D-maltoside], for which the “loss of ATPase activity of MsbA” value in data set [1] (RT, in 2 days) is “more than 70%”. Besides, in [1] (compared with β-UDM and 24 commercial detergents), the “ATPase activity of S. typhimurium MsbA, comparison of detergents” value is listed as “highest ATPase activity among all 24 commercial detergents tested”. The “MsbA stability in the detergent (protein solution, ATPase activity)” value in [1] (followed for more than a week at RT (about 23° C.)) is on record as “collapsed to form visible aggregates”. Also, in data set [1] (freshly purified MsbA in the detergent, 37° C.), the “initial ATPase activity” value turned out to be 1.19±0.03 μmol ATP·min^−1·mg^−1. Further, the detergent binding ratio on MsbA [2] amounted to 219±13 mol/mol MsbA.

On to `CCC[C@@H](C)[C@H]1CC[C@H]2[C@@H]3[C@H](OCCO[C@@H]4OC(CO)[C@@H](O[C@H]5OC(CO)[C@@H](O)[C@H](O)C5O)[C@H](O)C4O)C[C@@H]4C[C@H](O)CC[C@]4(C)[C@H]3C[C@H](OCCO[C@@H]3OC(CO)[C@@H](O[C@H]4OC(CO)[C@@H](O)[C@H](O)C4O)[C@H](O)C3O)[C@]12C` (stereo partly drawn) [Compound B1, 3α-hydroxyl-7α,12α-Di-((O-β-D-maltosyl)-2-hydroxyethoxy)-cholane], for which, in data set [3] (ANS fluorescence assay), the CMC came to 0.02%. Moreover, in data set [4], the “hydrodynamic radius of the micelle” value is on record as 2.2 nm. Further, at MsbA [5], the “SAXS of MsbA prepared in the presence of the detergent” value is listed as “Favorable results”.

The melting point is the temperature, or range, at which the solid turns liquid. The compound `CCC[C@@H](C)[C@H]1CC[C@H]2[C@@H]3[C@H](O[C@@H]4OC(CO)[C@@H](O[C@H]5OC(CO)[C@@H](O)[C@H](O)C5O)[C@H](O)C4O)C[C@@H]4CCCC[C@]4(C)[C@H]3C[C@H](O[C@@H]3OC(CO)[C@@H](O[C@H]4OC(CO)[C@@H](O)[C@H](O)C4O)[C@H](O)C3O)[C@]12C` (stereo partly drawn) [Compound A1, 7α,12α-Di-(O-β-D-maltosyl)-cholane] gave a melting point of 188 to 190 °C. In data set [3], this compound had a CMC of 0.1 mM. In data set [3] (ANS fluorescence assay), this compound came in with a CMC of 0.01%. Moreover, the “hydrodynamic radius of the micelle” value in [4] was 3.0-3.1 nm and 3.0 nm. For the same compound, the “UV-vis spectral change of bacteriorhodopsin sample” value at bacteriorhodopsin (BR) (over the course of almost one year) was “no observable UV-vis spectral change”. Moreover, the “stability of BR stored in the detergent” value at bacteriorhodopsin (BR) is listed as “remained completely stable”.

With `CCCCCCCCCCCCO[C@@H]1O[C@H](CO)[C@@H](O[C@H]2O[C@H](CO)[C@@H](O)[C@H](O)[C@H]2O)[C@H](O)[C@H]1O` [DDM, dodecyl-β-D-maltoside, reference compound], in data set [4], the “hydrodynamic radius of the micelle” value was 3.3-3.4 nm. The “crystallizability of cytochrome c oxidase ba3” value on cytochrome c oxidase ba3 is listed as “not crystallizable”.

`CCC[C@@H](C)[C@H]1CC[C@H]2[C@@H]3[C@H](OCCO[C@@H]4OC(CO)[C@@H](O[C@H]5OC(CO)[C@@H](O)[C@H](O)C5O)[C@H](O)C4O)C[C@@H]4CCCC[C@]4(C)[C@H]3C[C@H](OCCO[C@@H]3OC(CO)[C@@H](O[C@H]4OC(CO)[C@@H](O)[C@H](O)C4O)[C@H](O)C3O)[C@]12C` (stereo partly drawn) [Compound A2, 7α,12α-Di-((O-β-D-maltosyl)-2-hydroxyethoxy)-cholane] gave a CMC in data set [3] (ANS fluorescence assay) of 0.01%. For the same compound, the “hydrodynamic radius of the micelle” value in data set [4] is on record as 2.7 nm.

`CCC[C@@H](C)[C@H]1CC[C@H]2[C@@H]3[C@H](OCCO[C@@H]4OC(CO)[C@@H](O)[C@H](O)C4O)C[C@@H]4C[C@H](O)CC[C@]4(C)[C@H]3C[C@H](OCCO[C@@H]3OC(CO)[C@@H](O)[C@H](O)C3O)[C@]12C` (stereo partly drawn) [Compound B2, 3α-hydroxyl-7α,12α-Di-((O-D-glucosyl)-2-hydroxyethoxy)-cholane] showed a CMC in data set [3] (ANS fluorescence assay) of 0.013%.

With `CCCCCCCCO[C@@H]1O[C@H](CO)[C@@H](O)[C@H](O)[C@H]1O` [OG, octyl-β-D-glucoside, reference compound], the “stability of BR stored in the detergent” value at bacteriorhodopsin (BR) is given as “gradually denatured”. Moreover, the CMC in [6] is on record as 0.53%.
